{
  "source": "patent US20060217305A1",
  "about": "“Induction of tumor cell senescence by retinoid receptor agonists and antagonists” (Ordway Research Institute, Inc., priority 2005, published 2006)",
  "key": {"MCF-7 cells [1]": {"test_system": "MCF-7 cells", "test": "MCF-7 cell growth, cell number after 7 days", "assay_type": "cell-based, human", "conditions": "100 nM RA, LGD1550, LGD1268, 10 μM LG100815, LG101208", "description": "The bars represent cell number after 7 days of culture with the addition of DMSO (control), 100 nM RA, 100 nM RAR agonist LGD1550, 100 nM RXR agonist LGD1268, 10 μM RAR antagonist LG100815, and 10 μM RXR antagonist LG101208. Experiments were done in triplicate, and the results are expressed relative to the average of the control.\n(§1) To test this, we have analyzed the effects of different compounds on the growth of MCF-7 cells, as measured by the cell number after 7 days exposure to the compounds (FIG. 2) and on the fraction of cells expressing the senescence-associated β-galactosidase activity (SA-β-gal), a marker of senescence, after 7-day treatment with the compounds (FIG. 3)."}, "MCF-7 cells [2]": {"test_system": "MCF-7 cells", "test": "senescence-associated β-galactosidase (SA-β-gal) positive cells", "assay_type": "cell-based, human", "conditions": "7-day treatment (FIG. 3 legend: 8 days); concentrations as in FIG. 2", "from_the_text": "The bars represent percentages of SA-β-gal+ cells after 8 days of treatment with the indicated compounds (in triplicate). The compounds were used at the same concentrations as in FIG. 2.\nas §1"}},
  "data": [
    {"smiles": "CC(/C=C/C=C(\\C)c1cc(C(C)(C)C)cc(C(C)(C)C)c1)=C\\C(=O)O", "note": "[LGD1550]", "values": [
      {"measurement": "effect on MCF-7 cell growth (cell number)", "setting": "MCF-7 cells [1]", "value": "inhibited the cell growth"},
      {"measurement": "induction of senescent phenotype (SA-β-gal+ cells)", "setting": "MCF-7 cells [2]", "value": "induced SA-β-gal to an extent similar to that of RA"}
    ]}
  ]
}
